Measured values taken from patent US7119180B2, “2-halogenated derivatives of 5-O-desosaminyl-erythronolide A, their preparation process and their antibiotic use” (Aventis Pharma S.A., priority 1998, dated 2006).

What was measured:
Format in all cases: cell-based
S. pyogenes 02A1UC1 = assay: Method of dilutions in liquid medium (M.I.C.); conditions: reading after 24 hours, 37° C.
Method: (§1) Method of Dilutions in Liquid Medium A series of tubes were prepared in which the same quantity of nutritive sterile medium was distributed. Increasing quantities of the product to be studied were distributed into each tube and then each tube was seeded with a bacterial strain. After incubation for twenty-four hours in an oven at 37° C., the growth inhibition was evaluated by transillumination, which allowed the minimal inhibitory concentrations (M.I.C.) to be determined, expressed in micrograms/ml. The following results were obtained: (reading after 24 hours)

S. faecium 02D3HT1 = assay: Method of dilutions in liquid medium (M.I.C.); conditions: reading after 24 hours, 37° C.
Method: as §1

S. aureus 011UC4 = assay: Method of dilutions in liquid medium (M.I.C.); conditions: reading after 24 hours, 37° C.
Method: as §1

S. mitis 02MitCB1 = assay: Method of dilutions in liquid medium (M.I.C.); conditions: reading after 24 hours, 37° C.
Method: as §1

S. epidermidis 012GO11I = assay: Method of dilutions in liquid medium (M.I.C.); conditions: reading after 24 hours, 37° C.
Method: as §1

S. agalactiae 02B1HT1 = assay: Method of dilutions in liquid medium (M.I.C.); conditions: reading after 24 hours, 37° C.
Method: as §1

S. agalactiae 02B1SJ1c = assay: Method of dilutions in liquid medium (M.I.C.); conditions: reading after 24 hours, 37° C.
Method: as §1

S. aureus 011GO25I = assay: Method of dilutions in liquid medium (M.I.C.); conditions: reading after 24 hours, 37° C.
Method: as §1

[1] = tested on: Streptococcus gr. G 02GOGR5; assay: Method of dilutions in liquid medium (M.I.C.); conditions: reading after 24 hours, 37° C.
Method: as §1

S. pneumoniae 030GR20 = assay: Method of dilutions in liquid medium (M.I.C.); conditions: reading after 24 hours, 37° C.
Method: as §1

S. faecalis 02D2UC1 = assay: Method of dilutions in liquid medium (M.I.C.); conditions: reading after 24 hours, 37° C.
Method: as §1

S. pneumoniae 032UC1 = assay: Method of dilutions in liquid medium (M.I.C.); conditions: reading after 24 hours, 37° C.
Method: as §1

[2] = tested on: Haemophilus Influenzae 351CA1; assay: Activity on Gram- bacterial strains
Method: (§2) Method of Dilutions in Liquid Medium
(§3) A series of tubes were prepared in which the same quantity of nutritive sterile medium was distributed. Increasing quantities of the product to be studied were distributed into each tube and then each tube was seeded with a bacterial strain. After incubation for twenty-four hours in an oven at 37° C., the growth inhibition was evaluated by transillumination, which allowed the minimal inhibitory concentrations (M.I.C.) to be determined, expressed in micrograms/ml.

[3] = tested on: Haemophilus Influenzae 351CB12; assay: Activity on Gram- bacterial strains
Method: as §2, §3

[4] = tested on: Haemophilus Influenzae 351HT3; assay: Activity on Gram- bacterial strains
Method: as §2, §3

Compound | minimal inhibitory concentrations (M.I.C.) (S. pyogenes 02A1UC1) | minimal inhibitory concentrations (M.I.C.) (S. faecium 02D3HT1) | minimal inhibitory concentrations (M.I.C.) (S. aureus 011UC4; S. aureus 011UC4 + 50% serum) [micrograms/ml] | minimal inhibitory concentrations (M.I.C.) (S. aureus 011UC4; S. aureus 011UC4) [micrograms/ml] | minimal inhibitory concentrations (M.I.C.) (S. mitis 02MitCB1) [micrograms/ml] | minimal inhibitory concentrations (M.I.C.) (S. epidermidis 012GO11I) [micrograms/ml] | minimal inhibitory concentrations (M.I.C.) (S. agalactiae 02B1HT1) | minimal inhibitory concentrations (M.I.C.) (S. agalactiae 02B1SJ1c) [micrograms/ml] | minimal inhibitory concentrations (M.I.C.) (S. aureus 011GO25I) [micrograms/ml] | minimal inhibitory concentrations (M.I.C.) [1] [micrograms/ml] | minimal inhibitory concentrations (M.I.C.) (S. pneumoniae 030GR20) | minimal inhibitory concentrations (M.I.C.) (S. faecalis 02D2UC1) [micrograms/ml] | minimal inhibitory concentrations (M.I.C.) (S. pneumoniae 032UC1) [micrograms/ml] | activity on Gram- bacterial strain [2] | activity on Gram- bacterial strain [3] | activity on Gram- bacterial strain [4]
(3aS,4R,7S,9R,10R,11R,13R,15R,15aR,18S)-4-ethyl-7-fluoro-3a,4,10,11,12,13,15,15a-octahydro-18-(hydroxymethyl)-11-methoxy-3a,7,9,11,13,15-hexamethyl-10-[[3,4,6-trideoxy-3-(dimethylamino)-beta-D-xylo-hexopyranosyl]oxy]-14,1-(nitriloethano)-2H-oxacyclotetradecino[4,3-d]oxazole-2,6,8(7H,9H)-trione [Example 3] | # 0.02 micrograms/ml | 0.02 micrograms/ml | 0.040 | 0.040 | 0.02 | 0.150 | 0.02 micrograms/ml | 0.02 | 0.040 | 0.02 | 0.02 micrograms/ml | 0.02 | 0.02 | – | – | –
CC[C@H]1OC(=O)[C@@](C)(F)C(=O)[C@H](C)[C@@H](O[C@@H]2O[C@H](C)C[C@H](N(C)C)[C@H]2O)[C@](C)(OC)C[C@@H](C)C2=NCCN3C(=O)O[C@@]1(C)[C@H]3[C@H]2C (relative stereo) [Example 1, [3 as-(3aR*,4S*,7R*,9S*,10S*,11S*,13S*,15S*,15aS*)]-4-ethyl-7-fluoro-3a,4,10,11,12,13,15,15a-octahydro-11-methoxy-3a,7,9,11,13,15-hexamethyl-10-[[3,4,6-trideoxy-3-(dimethyl-amino)-beta-D-xylo-hexopyranosyl]oxy]-14,1-(nitriloethano)-2H-oxacyclotetradecino[4,3-d]oxazole-2,6,8(9H)-trione] | 0.040 micrograms/ml | # 0.02 micrograms/ml | 0.040 | 0.150 | 0.040 | 0.300 | # 0.02 micrograms/ml | 1.200 | 0.600 | 0.040 | # 0.02 micrograms/ml | 0.040 | 0.080 | useful activity | useful activity | useful activity
